# ChEMBL document CHEMBL4321858 (J Med Chem, 2019)
# How the values were obtained:
# [1] = AUC in Wistar rat at 0.5 mg/kg, iv; type: ADME, organism-based; conditions: in vivo
# [2] = Thermodynamic solubility of compound at pH 6.5; type: physicochemical; conditions: buffer; for solubility thermodynamic: read-out: Therm_solubility
# [3] = Lipophilicity, logD of compound at pH 7.5 by RP-HPLC analysis; type: physicochemical; conditions: buffer
# [4] = Oral bioavailability in Wistar rat at 2 mg/kg; type: ADME, organism-based; conditions: in vivo
# [5] = Apparent permeability across apical to basolateral side in human Caco2 cells at 2 uM after 2 hrs by LC/MS-MS analysis; type: ADME, cell-based; conditions: Caco-2
# [6] = Volume of distribution at steady state in Wistar rat at 0.5 mg/kg, iv; type: ADME, organism-based; conditions: in vivo, read-out: Vdss
# [7] = Volume of distribution at steady state in Wistar rat at 1 mg/kg, iv; type: ADME, organism-based; conditions: in vivo, read-out: Vdss
# [8] = Unbound drug level in plasma of CFA induced C57BL/6N mouse at 50 mg/kg, po after 1 hr; type: ADME, organism-based; conditions: in vivo
# [9] = Unbound drug level in plasma of CFA induced C57BL/6N mouse at 25 mg/kg, po after 1 hr; type: ADME, organism-based; conditions: in vivo
# [10] = Unbound drug level in plasma of CFA induced C57BL/6N mouse at 50 mg/kg, po after 80 mins; type: ADME, organism-based; conditions: in vivo
# [11] = AUC in Wistar rat at 1 mg/kg, iv; type: ADME, organism-based; conditions: in vivo
# [12] = Unbound drug level in plasma of CFA induced C57BL/6N mouse at […], po after 1 hr; type: ADME, organism-based; conditions: in vivo
SMILES,solubility thermodynamic [2],logD [3],bioavailability [4],"Papp A→B at 2 h, 2 µM [5]",further results
NS(=O)(=O)c1cc(NC(=O)Cc2ccccc2Cl)ccc1OCC1CCOCC1,21 µg/mL,2.2,21%,5.3 ×10⁻⁶ cm/s,AUC [1]: 0.37 kg·h/L; Vd [6]: 1.23 L/kg
NS(=O)(=O)c1cc(NC(=O)Cc2ccccc2Cl)ccc1Oc1ccc(-c2nccs2)cc1,1 µg/mL,,,,
NS(=O)(=O)c1cc(NC(=O)Cc2c(F)cccc2Cl)ccc1Oc1cccc(Cl)c1,0.7 µg/mL,,,,
NS(=O)(=O)c1cc(NC(=O)Cc2ccccc2)ccc1Oc1cccc(Cl)c1 [BAY-1797],16 µg/mL,2.8,43%,13.2 ×10⁻⁶ cm/s,Vd [7]: 2.77 L/kg; Cp(f) [8]: 672 nM; Cp(f) [9]: 374 nM; Cp(f) [10]: 548 nM; AUC [11]: 1.06 kg·h/L; Cp(f) [12]: 186 nM
NS(=O)(=O)c1cc(NC(=O)Cc2ccccc2C(F)(F)F)ccc1Oc1cccc(Cl)c1,,3.3,,,
NS(=O)(=O)c1cc(NC(=O)Cc2ccccc2Cl)ccc1OCc1ccccc1,,,,,Therm_solubility [2]: Insoluble
NS(=O)(=O)c1cc(NC(=O)Cc2ccccc2Cl)ccc1Oc1cccc(Cl)c1,7 µg/mL,3,,,
NS(=O)(=O)c1cc(NC(=O)Cc2cc(F)ccc2Cl)ccc1OCC1CCOCC1,24 µg/mL,2.2,44%,4.3 ×10⁻⁶ cm/s,AUC [1]: 1.11 kg·h/L; Vd [6]: 0.82 L/kg
